The text below walks through data of patent EP4813986A1, “COMPOUND FOR REDUCING SERUM CONCENTRATION OF RBP4, AND USE” (Heronova Pharmaceuticals, LLC, priority 2023, dated 2025).

Series [1] is described as follows: Pharmacokinetic test, single oral dose, plasma LC-MS/MS. Format: in vivo. The settings on record: mouse, male ICR mice; for half-life: read-out: half-life T1/2 (converted); for Cmax: read-out: peak concentration Cmax; for Tmax: read-out: peak time Tmax. On the procedure: Test Method: Three ICR mice (male) were used for each compound, with five groups in total. Mice were treated with a single oral dose of 10 mg/kg or 5 mg/kg. For each mouse, blood samples were collected at 0.25, 0.5, 1, 2, 4, and 8 hours after administration. Whole blood samples were placed in test tubes containing EDTA-K2, inverted up and down several times, and then centrifuged at 6000 rpm, 4°C for 15 minutes to obtain plasma. The concentration of the compound in plasma samples was determined using the LC-MS/MS method. Table 4 Pharmacokinetic Results of Different Compounds

Series [2] in a line: in vitro. To be noted: microsomes, pH 7.4. As for the experimental part:
Phosphate buffer preparation: Weigh 7.098 g of disodium hydrogen phosphate, add 500 mL of pure water and dissolve by ultrasonication to obtain a disodium hydrogen phosphate solution. Weigh 3.400 g of potassium dihydrogen phosphate, add 250 mL of pure water and dissolve by ultrasonication to obtain a potassium dihydrogen phosphate solution. The disodium hydrogen phosphate solution and potassium dihydrogen phosphate solution were mixed and adjusted to pH 7.4+0.2.
10 mM NADPH preparation: Weigh an appropriate amount of NADPH (reduced coenzyme II), freshly prepare a 10 mM working solution with phosphate buffer, and the final concentration is 1 mM.
Incubation system preparation: Prepare the suspension into the incubation plate according to Table 5, and pre-incubate in a 37°C water bath for 10 min. Table 5 Incubation System Preparation
2 µL of positive control or test compound working solution was added to 358 µL of the incubation system, mixed uniformly by vortexing, and all samples were prepared in duplicate. 40 µL of 10 mM NADPH was added to the system, mixed uniformly by low-speed vortexing, and the reaction timing was started. […] Centrifuge at 4700 rpm, 4°C for 15 minutes to precipitate proteins. Transfer 100 µL of the supernatant to the sample plate, add 100 µL of pure water and mix well for UPLC-MS/MS analysis. Table 6 Liver Microsome Stability Results

Series [3] addresses T1, RBP4 (Mus musculus, UniProt Q00724).
T1 construct: from tissue; host or cells: plasma of ICR male mice
As to the kind of experiment: Plasma RBP4 content detection test (ELISA) after single oral dose. Format: in vivo, ICR male mice. To be noted: 5 mg/kg oral, maximum reduction within 5 to 24 hours vs 0-hour value. As for the experimental part: Test Method: ICR male mice aged 7 to 8 weeks were adaptively fed for 3 to 7 days and randomly divided into groups (4 mice per group), and fasted for 12 hours before the test. Orbital venous blood samples were collected and plasma was separated before administration on the test day (0-hour value as the initial content). Then, test compounds at a dose of 1 mg/kg or 5 mg/kg were orally administered (vehicle: 5% DMSO + 10% cyclodextrin), and vehicle (5% DMSO + 10% cyclodextrin) was orally administered as a control group. Orbital venous blood samples were collected and plasma was separated at 5, 8, 10, 12, and 24 hours after compound administration. The RBP4 content in plasma samples was detected using Mouse RBP4 (Retinol Binding Protein 4, Plasma) ELISA Kit (immunoway, KE1574), the reduction rate was calculated, and the maximum reduction rate within 5 to 24 hours was selected. Reduction rate of RBP4 content in mouse plasma at different sampling time points = (Initial RBP4 content - RBP4 content at sampling point) / Initial RBP4 content. Table 2 Plasma RBP4 Reduction Levels of Different Compounds
(In an ELISA, binding on a coated surface is turned into a signal by an enzyme label.)

The mark [4] stands for this setting: in vivo, single oral dose 10 mg/kg.

Where two headings read alike, the source gives them in different places.

As for `[2H]C([2H])([2H])OCC(=O)N1CCc2c(C(=O)N3CC=C(c4cccc(F)c4C(F)(F)F)CC3)n[nH]c2C1` [Compound 8], in series [1] (single oral dose 10 mg/kg), the exposure AUC(0-t) (as a rule, the area under the concentration-time curve up to a stated or last time point) worked out at 556 ng·h/mL; the half-life was 199 min; the Cmax was found to be 515 ng/mL; the time to peak (Tmax) – broadly, the time at which the peak concentration occurs – came to 30 min. Besides, in series [2] (human), the half-life at 1 µM came to 70.4 min and the microsomal CLint (usually the capacity of the preparation to metabolise the compound, expressed as a volume cleared per time) at 1 µM worked out at 19.7 µL/min/mg. In series [2] (mouse), this compound had a half-life at 1 µM of 6.79 min and an intrinsic clearance (microsomal CLint) at 1 µM of 204 µL/min/mg.
Take `CC(=O)N1CCc2c(C(=O)N3CCC(c4ccc(F)c(F)c4C(F)(F)F)CC3)n[nH]c2C1` [reference compound, 1-(3-(4-(3,4-difluoro-2-(trifluoromethyl)phenyl)piperidine-1-carbonyl)-4,5-dihydro-1H-pyrazolo[3,4-c]pyridin-6(7H)-yl)ethanone, reference compound]: in series [1] (single oral dose 10 mg/kg), the AUC(0-t) was 8830 ng·h/mL, the half-life is 92.4 min, the Cmax came to 3230 ng/mL and the Tmax is 40.2 min.
Consider `CC(=O)N1CCc2c(C(=O)N3CC=C(c4cccc(F)c4C(F)(F)F)CC3)n[nH]c2C1` [Compound 2], for which the figures for the half-life at 1 µM in series [2] (human) and in series [2] (mouse) were 94.4 min and 18.8 min, respectively. Besides, the microsomal CLint at 1 µM is 14.7 µL/min/mg in series [2] (human) and 73.6 µL/min/mg in series [2] (mouse).
For the compound `NC(=O)CN1CCc2c(C(=O)N3CC=C(c4cccc(F)c4C(F)(F)F)CC3)n[nH]c2C1` [Compound 15], in series [1] (single oral dose 5 mg/kg), the AUC(0-t) is 319 ng·h/mL, the half-life is 185 min, the Cmax worked out at 141 ng/mL and the Tmax amounted to 30 min. Further, in series [3], the “Maximum Plasma RBP4 Reduction Rate (5 mg/kg dose)” value (“Maximum Plasma RBP4 Reduction Rate” for short) is on record as 77%. In series [2] (human), this compound gave a half-life at 1 µM greater than 180 min and a microsomal CLint at 1 µM of less than 7.44 µL/min/mg. In addition, in series [2] (mouse), the half-life at 1 µM is 17.4 min and the intrinsic clearance (microsomal CLint) at 1 µM came to 79.9 µL/min/mg.
In the case of `NC(=O)CN1CCc2c(C(=O)N3CC=C(c4ccc(F)c(F)c4C(F)(F)F)CC3)n[nH]c2C1` [Compound 10], in series [1] (single oral dose 10 mg/kg), the AUC(0-t) came to 1200 ng·h/mL, the half-life was 113 min, the Cmax turned out to be 468 ng/mL and the time of peak concentration (Tmax) was determined as 30 min. The “Maximum Plasma RBP4 Reduction Rate” value in series [3] was 72%. In series [2] (human), this compound showed a half-life at 1 µM greater than 180 min and a microsomal CLint at 1 µM of less than 7.44 µL/min/mg. In series [2] (mouse), this compound yielded a half-life at 1 µM of 18.6 min and a microsomal CLint at 1 µM of 74.5 µL/min/mg.
Regarding `CC(C(N)=O)C(=O)N1CCc2c(C(=O)N3CC=C(c4ccc(F)c(F)c4C(F)(F)F)CC3)n[nH]c2C1` (stereo not shown) [Compound 19], in series [1] (single oral dose 10 mg/kg), the AUC(0-t) is 41.9 ng·h/mL, the half-life is 119 min, the Cmax came to 22.3 ng/mL and the Tmax was found to be 50 min. Also, in series [2] (human), the half-life at 1 µM was greater than 180 min and the intrinsic clearance (microsomal CLint) at 1 µM is less than 7.44 µL/min/mg. In series [2] (mouse), this compound gave a half-life at 1 µM of 74.6 min and an intrinsic clearance (microsomal CLint) at 1 µM of 18.6 µL/min/mg.
In series [2] (human), `CN(C)C(=O)CN1CCc2c(C(=O)N3CC=C(c4ccc(F)c(F)c4C(F)(F)F)CC3)n[nH]c2C1` [Compound 12] yielded a half-life at 1 µM of 126 min and a microsomal CLint at 1 µM of 11 µL/min/mg. In series [2] (mouse), this compound had a half-life at 1 µM of 4.2 min and a microsomal CLint at 1 µM of 330 µL/min/mg.
Regarding `O=C1NCC[C@@H]1N1CCc2c(C(=O)N3CC=C(c4ccc(F)c(F)c4C(F)(F)F)CC3)n[nH]c2C1` [Compound 18], in series [2] (human), the half-life at 1 µM was greater than 180 min and the intrinsic clearance (microsomal CLint) at 1 µM is less than 7.44 µL/min/mg. In series [2] (mouse), this compound registered a half-life at 1 µM of 18.8 min and an intrinsic metabolic clearance (microsomal CLint) at 1 µM of 73.5 µL/min/mg.
Turning to `COCC(=O)N1CCc2c(C(=O)N3CC=C(c4cccc(F)c4C(F)(F)F)CC3)n[nH]c2C1` [Compound 6], in series [1] (single oral dose 10 mg/kg), the exposure AUC(0-t) was 383 ng·h/mL, the half-life is 230 min, the Cmax was 285 ng/mL and the Tmax stood at 30 min. In series [2] (human), this compound displayed a half-life at 1 µM of 63 min and a microsomal CLint at 1 µM of 22 µL/min/mg. In series [2] (mouse), this compound registered a half-life at 1 µM of 9.46 min and a microsomal CLint at 1 µM of 146 µL/min/mg.
Turning to `O=C(c1n[nH]c2c1CCNC2)N1CC=C(c2cccc(F)c2C(F)(F)F)CC1` [Compound 13], in series [1] (single oral dose 10 mg/kg), the area under the curve AUC(0-t) came out at 6040 ng·h/mL, the Cmax came out at 1200 ng/mL and the Tmax is 120 min. In addition, the “Maximum Plasma RBP4 Reduction Rate” value in series [3] is reported as 67%. In series [2] (human), this compound came in with a half-life at 1 µM greater than 180 min and a microsomal CLint at 1 µM of less than 7.44 µL/min/mg. In series [2] (mouse), this compound had a half-life at 1 µM of 30.2 min and an intrinsic metabolic clearance (microsomal CLint) at 1 µM of 45.8 µL/min/mg.
For `NC(=O)C(=O)N1CCc2c(C(=O)N3CC=C(c4ccc(F)c(F)c4C(F)(F)F)CC3)n[nH]c2C1` [Compound 16], in series [1] (single oral dose 5 mg/kg), the AUC(0-t) came out at 490 ng·h/mL, the half-life is 101 min, the Cmax was found to be 235 ng/mL and the Tmax turned out to be 30 min. In series [2] (human), this compound yielded a half-life at 1 µM greater than 180 min and a microsomal CLint at 1 µM of less than 7.44 µL/min/mg. In series [2] (mouse), this compound registered a half-life at 1 µM greater than 180 min and a microsomal CLint at 1 µM of less than 7.44 µL/min/mg.
In the case of `O=C1NCC[C@@H]1N1CCc2c(C(=O)N3CC=C(c4cccc(F)c4C(F)(F)F)CC3)n[nH]c2C1` [Compound 20], in series [1] (single oral dose 10 mg/kg), the area under the curve AUC(0-t) stood at 208 ng·h/mL, the half-life is 97.8 min, the Cmax worked out at 112 ng/mL and the time of peak concentration (Tmax) is 30 min. In series [2] (human), this compound showed a half-life at 1 µM of 99 min and a microsomal CLint at 1 µM of 14 µL/min/mg. In series [2] (mouse), this compound came in with a half-life at 1 µM of 13.7 min and a microsomal CLint at 1 µM of 101 µL/min/mg.
Turning to `CC(=O)N1CCc2c(C(=O)N3CC=C(c4ccc(F)c(F)c4C(F)(F)F)CC3)n[nH]c2C1` [Compound 1], in series [1] (setting [4]), the AUC(0-t) was 2460 ng·h/mL, the half-life is 167 min, the Cmax is 1240 ng/mL and the time to peak (Tmax) is 30 min. Besides, in series [3], the “Maximum Plasma RBP4 Reduction Rate” value is 41%. In series [2] (human), this compound had a half-life at 1 µM greater than 180 min and an intrinsic metabolic clearance (microsomal CLint) at 1 µM of less than 7.44 µL/min/mg. In series [2] (mouse), the half-life at 1 µM turned out to be 45.9 min and the microsomal CLint at 1 µM stood at 30.2 µL/min/mg.
Consider `COCCN1CCc2c(C(=O)N3CC=C(c4cccc(F)c4C(F)(F)F)CC3)n[nH]c2C1` [Compound 3], for which, in series [1] (single oral dose 10 mg/kg), the AUC(0-t) came to 119 ng·h/mL, the half-life was 442 min, the Cmax was 159 ng/mL and the Tmax was 30 min. Moreover, in series [2] (human), the half-life at 1 µM was found to be 18.7 min and the microsomal CLint at 1 µM was 74 µL/min/mg. In series [2] (mouse), this compound registered a half-life at 1 µM of 26.3 min and a microsomal CLint at 1 µM of 52.7 µL/min/mg.
Turning to `O=C(c1n[nH]c2c1COCC2)N1CC=C(c2cccc(F)c2C(F)(F)F)CC1` [Compound 23], in series [2] (human), the half-life at 1 µM is 54.3 min and the intrinsic metabolic clearance (microsomal CLint) at 1 µM was found to be 25.5 µL/min/mg. In addition, in series [2] (mouse), the half-life at 1 µM stood at 10.7 min and the microsomal CLint at 1 µM was determined as 130 µL/min/mg.
For `O=C(c1n[nH]c2c1COCC2)N1CC=C(c2ccc(F)c(F)c2C(F)(F)F)CC1` [Compound 17], in series [1] (setting [4]), the AUC(0-t) was 17800 ng·h/mL, the half-life was 201 min, the Cmax is 2860 ng/mL and the time to peak (Tmax) was found to be 108 min. Moreover, in series [2] (human), the half-life at 1 µM is greater than 180 min and the microsomal CLint at 1 µM is less than 7.44 µL/min/mg. Also, in series [2] (mouse), the half-life at 1 µM was determined as 36.4 min and the microsomal CLint at 1 µM turned out to be 38.1 µL/min/mg.
In series [2] (human), `CNC(=O)CN1CCc2c(C(=O)N3CC=C(c4ccc(F)c(F)c4C(F)(F)F)CC3)n[nH]c2C1` [Compound 11] gave a half-life at 1 µM of 140 min and a microsomal CLint at 1 µM of 9.9 µL/min/mg. Further, in series [2] (mouse), the half-life at 1 µM turned out to be 11.4 min and the microsomal CLint at 1 µM worked out at 121 µL/min/mg.
